Source: US9187487B2, “Azaindole derivatives as tyrosine kinase inhibitors” (PRINCIPIA BIOPHARMA, INC., priority 2011, dated 2015)

Biological target: recombinant JAK3 (catalytic domain, aa 781-1124) (Homo sapiens (Human), UniProt P52333)
Experiment: JAK3 Caliper Peptide Phosphorylation Assay
Assay type: biochemical
Details: fluorescently labeled Srctide substrate 1 uM; ATP at 1×Km (2 uM); 2 hours at 25° C.
Procedure: JAK3 Caliper Peptide Phosphorylation Assay
Phosphorylation of the appropriate peptide substrate (fluorescently labeled Srctide) by recombinant JAK3 (catalytic domain, aa 781-1124) was measured in the presence and absence of different concentrations of test compounds. Test compound, enzyme, fluorescently labeled substrate, and cofactors (ATP and Mg^2+) were combined in a well of a microtiter plate and incubated for 2 hours at 25° C. The composition of the reaction buffer was 100 mM HEPES pH 7.5, 5 mM MgCl2, 0.01% Triton-X 100, 0.1% Bovine Serum Albumin, and 1% DMSO. Enzyme concentration in the final reaction mixture was 0.5 nM while peptide substrate was at 1 uM. ATP was used at 1×Km concentration corresponding to 2 uM. Serial dilutions (3-fold steps) of compounds were prepared in DMSO. At the end of the incubation, the reaction was stopped by the addition of 20 mM EDTA. Substrate and product (i.e. phosphorylated substrate) were separated electrophoretically and both were quantified by fluorescence intensity using the microfluidics-based LabChip 3000 Drug Discovery System from Caliper Life Sciences. Conversion for each well was calculated and plotted as function of test compound concentration. IC50 value was determined by fitting the data to a 4-parameter logistic model by non-linear regression (XLfit model 205). In every assay, Staurosporine was tested in the same manner as reference compound. Selectivity for JAK3 was determined using commercially available kinase cross-screening services (DiscoveRx, San Diego, Calif.).

Sequence of recombinant JAK3 (catalytic domain, aa 781-1124) (P52333 781-1124): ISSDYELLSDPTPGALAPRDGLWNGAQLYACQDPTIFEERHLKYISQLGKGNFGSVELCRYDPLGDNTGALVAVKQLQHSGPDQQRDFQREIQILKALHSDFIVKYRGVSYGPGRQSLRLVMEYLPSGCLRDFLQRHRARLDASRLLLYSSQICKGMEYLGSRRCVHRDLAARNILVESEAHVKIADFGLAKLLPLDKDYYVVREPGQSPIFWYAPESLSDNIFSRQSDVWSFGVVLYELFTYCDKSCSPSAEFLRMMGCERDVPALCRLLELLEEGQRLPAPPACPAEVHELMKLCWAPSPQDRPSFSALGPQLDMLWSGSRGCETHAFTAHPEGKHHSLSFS

SMILES | IC50
CN(C)C(=O)C(C#N)=Cc1ccc(Nc2ncnc3[nH]ccc23)cc1 [compound 6, 3-(4-((7H-pyrrolo[2,3-d]pyrimidin-4-yl)amino)-phenyl)-2-cyano-N,N-dimethylacrylamide] | 580 nM
CN(C)C(=O)C(C#N)=Cc1ccc(Oc2ncnc3[nH]ccc23)cc1 [compound 12, 3-(4-((7H-pyrrolo[2,3-d]pyrimidin-4-yl)oxy)phenyl)-2-cyano-N,N-dimethylacrylamide] | 280 nM
Cc1c(C=C(C#N)C(=O)N(C)C)cccc1Nc1ncnc2[nH]ccc12 [compound 16, 3-(3-((7H-pyrrolo[2,3-d]pyrimidin-4-yl)amino)-2-methylphenyl)-2-cyano-N,N-dimethylacrylamide] | 1270 nM
CN(C)C(=O)C(C#N)=Cc1cc(Nc2ncnc3[nH]ccc23)ccc1Cl [compound 17, 3-(5-((7H-pyrrolo[2,3-d]pyrimidin-4-yl)amino)-2-chlorophenyl)-2-cyano-N,N-dimethylacrylamide] | 1770 nM
CN(C)C(=O)C(C#N)=Cc1cccc(-c2cnc3[nH]ccc3n2)c1 [compound 27, 3-(3-(5H-pyrrolo[2,3-b]pyrazin-2-yl)phenyl)-2-cyano-N,N-dimethylacrylamide] | > 1000 nM
CN(C)C(=O)C(C#N)=Cc1cccc(Nc2cnc3[nH]ccc3n2)c1 [compound 29, 3-(3-((5H-pyrrolo[2,3-b]pyrazin-2-yl)amino)phenyl)-2-cyano-N,N-dimethylacrylamide] | > 1000 nM
CN(C)C(=O)C(C#N)=Cc1cccc(Oc2cnc3[nH]ccc3n2)c1 [compound 31, 3-(3-((5H-pyrrolo[2,3-b]pyrazin-2-yl)oxy)phenyl)-2-cyano-N,N-dimethylacrylamide] | > 1000 nM
CC(C)NC(=O)c1c[nH]c2ncc(-c3cccc(C=C(C#N)C(=O)N(C)C)c3)nc12 [compound 47, 2-(3-(2-cyano-3-(dimethylamino)-3-oxoprop-1-en-1-yl)phenyl)-N-isopropyl-5H-pyrrolo[2,3-b]pyrazine-7-carboxamide] | 13 nM
CC(C)(C)C(=O)c1c[nH]c2ncc(Nc3ccc(C=C(C#N)C(N)=O)cc3)nc12 [compound 60, 2-cyano-3-(4-((7-pivaloyl-5H-pyrrolo[2,3-b]-pyrazin-2-yl)amino)phenyl)acrylamide] | 0.4 nM
CN(C)C(=O)C(C#N)=Cc1ccc(Nc2cnc3[nH]cc(C(=O)C(C)(C)C)c3n2)cc1F [compound 66, 2-cyano-3-(2-fluoro-4-((7-pivaloyl-5H-pyrrolo[2,3-b]pyrazin-2-yl)amino)phenyl)-N,N-dimethylacrylamide] | 0.7 nM
CN(C)C(=O)C(C#N)=Cc1ccc(Nc2cnc3[nH]cc(C(=O)C(C)(C)C)c3n2)cc1Cl [compound 68, 3-(2-chloro-4-(7-pivaloyl-5H-pyrrolo-[2,3-b]pyrazin-2-ylamino)phenyl)-2-cyano-N,N-dimethylacrylamide] | 1 nM

The next lines start with the values.

IC50 | SMILES
305 nM | CN(C)C(=O)C(C#N)=Cc1cccc(-c2ncnc3[nH]ccc23)c1 [compound 1, 3-(3-(7H-pyrrolo[2,3-d]pyrimidin-4-yl)phenyl)-2-cyano-N,N-dimethylacrylamide]
150 nM | CN(C)C(=O)C(C#N)=Cc1cccc(Nc2ncnc3[nH]ccc23)c1 [compound 3, 3-(3-((7H-pyrrolo[2,3-d]pyrimidin-4-yl)amino)-phenyl)-2-cyano-N,N-dimethylacrylamide]
> 1000 nM | CN(C)C(=O)C(C#N)=Cc1cccc(N(C)c2ncnc3[nH]ccc23)c1 [compound 4, 2-cyano-N,N-dimethyl-3-(3-(methyl(7H-pyrrolo[2,3-d]pyrimidin-4-yl)amino)phenyl)acrylamide]
> 1000 nM | CN(C)C(=O)C(C#N)=Cc1ccc(N(C)c2ncnc3[nH]ccc23)cc1 [compound 7, 2-cyano-N,N-dimethyl-3-(4-(methyl(7H-pyrrolo[2,3-d]pyrimidin-4-yl)amino)phenyl)acrylamide]
> 1000 nM | CN(C)C(=O)C(C#N)=Cc1cccc(Oc2ncnc3[nH]ccc23)c1 [compound 11, 3-(3-((7H-pyrrolo[2,3-d]pyrimidin-4-yl)oxy)phenyl)-2-cyano-N,N-dimethylacrylamide]
2200 nM | COc1c(C=C(C#N)C(=O)N(C)C)cccc1Nc1ncnc2[nH]ccc12 [compound 15, 3-(3-((7H-pyrrolo[2,3-d]pyrimidin-4-yl)amino)-2-methoxyphenyl)-2-cyano-N,N-dimethylacrylamide]
> 5000 nM | Cc1ccc(Nc2ncnc3[nH]ccc23)cc1C=C(C#N)C(=O)N(C)C [compound 19, 3-(5-((7H-pyrrolo[2,3-d]pyrimidin-4-yl)amino)-2-methylphenyl)-2-cyano-N,N-dimethylacrylamide]
320 nM | CN(C)C(=O)C(C#N)=Cc1ccc(Oc2cnc3[nH]ccc3n2)cc1 [compound 32, 3-(4-((5H-pyrrolo[2,3-b]pyrazin-2-yl)oxy)phenyl)-2-cyano-N,N-dimethylacrylamide]
0.2 nM | CC(C)NC(=O)c1c[nH]c2ncc(Nc3ccc(C=C(C#N)C(=O)N(C)C)cc3)nc12 [compound 50, 2-((4-(2-cyano-3-(dimethylamino)-3-oxoprop-1-en-1-yl)phenyl)amino)-N-isopropyl-5H-pyrrolo[2,3-b]pyrazine-7-carboxamide]
1150 nM | CC(C)NC(=O)c1c[nH]c2ncc(Oc3cccc(C=C(C#N)C(=O)N(C)C)c3)nc12 [compound 51, 2-(3-(2-cyano-3-(dimethylamino)-3-oxoprop-1-en-1-yl)phenoxy)-N-isopropyl-5H-pyrrolo[2,3-b]pyrazine-7-carboxamide]
1 nM | CN(C)C(=O)C(C#N)=Cc1ccc(Nc2cnc3[nH]cc(C(=O)C(C)(C)C)c3n2)cc1 [compound 57, 2-cyano-N,N-dimethyl-3-(4-((7-pivaloyl-5H-pyrrolo[2,3-b]pyrazin-2-yl)amino)phenyl)-acrylamide]
0.4 nM | CC(C)(C)C(=O)c1c[nH]c2ncc(Nc3ccc(C=C(C#N)C(=O)N4CCC4)cc3)nc12 [compound 62, 2-(azetidine-1-carbonyl)-3-(4-((7-pivaloyl-5H-pyrrolo[2,3-b]pyrazin-2-yl)amino)phenyl)acrylonitrile]
0.2 nM | CN1CCN(C(=O)C(C#N)=Cc2ccc(Nc3cnc4[nH]cc(C(=O)C(C)(C)C)c4n3)cc2)CC1 [compound 64, 2-(4-methylpiperazine-1-carbonyl)-3-(4-(7-pivaloyl-5H-pyrrolo[2,3-b]pyrazin-2-ylamino)phenyl)acrylonitrile]
0.5 nM | CN(C)C(=O)C(C#N)=Cc1ccc(Nc2cnc3[nH]cc(C(=O)C(C)(C)C)c3n2)c(F)c1 [compound 69, 2-cyano-3-(3-fluoro-4-((7-pivaloyl-5H-pyrrolo[2,3-b]pyrazin-2-yl)amino)phenyl)-N,N-dimethylacrylamide]
0.9 nM | CN(C)C(=O)C(C#N)=Cc1ccc(Nc2cnc3[nH]cc(C(=O)C(C)(C)C)c3n2)cn1 [compound 70, 2-cyano-N,N-dimethyl-3-(5-((7-pivaloyl-5H-pyrrolo[2,3-b]pyrazin-2-yl)amino)pyridin-2-yl)acrylamide]
0.2 nM | CN(C)C(=O)C(C#N)=Cc1ccc(Nc2cnc3[nH]cc(C(=O)NC(C)(C)C)c3n2)cc1 [compound 71, N-(tert-butyl)-2-((4-(2-cyano-3-(dimethylamino)-3-oxoprop-1-en-1-yl)phenyl)amino)-5H-pyrrolo[2,3-b]pyrazine-7-carboxamide]
